Like-named read-outs stand apart in the source and are kept apart here.
What was measured:
cervical canal [1] = assay: Cervical ripening action (maximum tension and slope in extension of the extracted cervical canal after intravaginal administration); type: in vivo, Hartley mature guinea pigs; conditions: 10µg, intravaginal administration three times, cervical canal extracted 4 hours after final administration; maximum tension and slope compared with the base administration group, Dunnett's method
Protocol: The cervical ripening actions of compounds of formula (I) were examined by using Hartley mature guinea pigs (nine-week-old, clean animals).
In order to compare with these compounds, the action of BPS was also tested. Experiment was carried out for 4 to 14 samples per group.
In the test, 100 µl of a test medicine or a base thereof was administered to the vagina at 9 o'clock and 17 o'clock, and 9 o'clock on the next day, and a guinea pig was dissected to extract the cervical canal 4 hours after the final administration. Then, the cervical canal was extended at a rate of 2 mm/min to measure tension generated in the tissue with time. As an index for cervical ripening, the maximum tension generated up to breakage of the tissue, and the slope obtained by dividing the maximum tension by the distance of extension were examined. It is thought that decreases in these values indicate ripening of the cervical canal. A test medicine was dissolved in phosphate buffered saline, and then mixed with 3% hydroxypropyl cellulose.
Figs. 1 and 2 show changes in the maximum tension and the slope, respectively, caused by the test medicines. (*: P < 0.05, **: P < 0.01, Dunnett's method, comparison with the base administration group).

cervical canal [2] = conditions: mice; high dosage of 100 µg to 200 µg (about 2 to 4 mg per kg of weight) required; cited from earlier work

Row | Structure (SMILES) | cervical ripening action (cervical canal [1]) | cervical ripening action (cervical canal [2])
1 | O=C(O)COc1cccc2c1OC1CC(O)C(C=CC(O)C3CCCCC3)C21 (centres unmarked) [Compound-2] | significant cervical ripening action | –
2 | O=C(O)COc1cccc2c1OC1CC(O)C(C=CC(O)C3CCCC3)C21 (centres unmarked) [Compound-1] | significant cervical ripening action | –
3 | O=C(O)CCc1cccc2c1O[C@H]1C[C@@H](O)[C@H](/C=C/[C@@H](O)CC3CCCCC3)[C@@H]21 [Compound-3] | significant cervical ripening action | –
4 | CC#CCC(C)[C@H](O)/C=C/[C@@H]1[C@H]2c3cccc(CCCC(=O)O)c3O[C@H]2C[C@H]1O (mixture of isomers) [BPS, beraprost sodium, reference compound] | no cervical ripening action | exhibits a cervical ripening action
